Reference: patent publication US20230183193A1, “4-DIFLUOROMETHYL BENZOYL AMIDES WITH HERBICIDAL ACTION” (BAYER CROPSCIENCE AKTIENGESELLSCHAFT, priority 2017, published 2023)

What was measured:
[1] = system: Pharbitis purpureum; experiment: Post-emergence herbicidal action, PHBPU; format: in vivo; conditions: 80 g/ha, Table D
How it was run: (§1)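 Herbicidal effect is rated visually as percent versus untreated plants (100% = dead, 0% = like control) about 3 weeks after spraying. Plants were sown in sandy loam in the greenhouse and sprayed on green parts at the one-leaf stage, 2 to 3 weeks post-sowing.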

[2] = system: Viola tricolor; experiment: Pre-emergence herbicidal action, VIOTR; format: in vivo; conditions: for herbicidal activity VIOTR: scored visually after 3 weeks vs untreated controls
How it was run: (§2)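 Weed seeds were laid out in sandy loam and covered with soil, then the soil surface was treated with an aqueous suspension or emulsion of the formulated compound containing 0.2% wetting agent. Pots stayed in the greenhouse for 3 weeks before damage was rated visually against untreated plants.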

[3] = system: Avena fatua; experiment: Post-emergence herbicidal action, AVEFA; format: in vivo
How it was run: as §1

[4] = system: Stellaria media; experiment: Post-emergence herbicidal action, STEME; format: in vivo; conditions: for Herbicidal activity STEME: 80 g/ha, Table D
How it was run: as §1

[5] = system: Abutilon theophrasti; experiment: Pre-emergence herbicidal action, ABUTH; format: in vivo; conditions: for Herbicidal efficacy against ABUTH: Table K
How it was run: as §2

[6] = system: Setaria viridis; experiment: Pre-emergence herbicidal action, SETVI; format: in vivo
How it was run: as §2

[7] = system: Cyperus serotinus; experiment: Post-emergence herbicidal action, CYPES; format: in vivo; conditions: 5 g/ha
Description: Seeds of monocotyledonous and dicotyledonous weed and crop plants are laid out in sandy loam soil in wood-fiber pots, covered with soil and cultivated in a greenhouse under good growth conditions. 2 to 3 weeks after sowing, the test plants are treated at the one-leaf stage. The compounds of the invention, formulated in the form of wettable powders (WP) or as emulsion concentrates (EC), are then sprayed onto the green parts of the plants in the form of an aqueous suspension or emulsion at a water application rate equating to […], with addition of 0.2% wetting agent. After the test plants have been left to stand in the greenhouse under optimal growth conditions for about 3 weeks, the action of the preparations is assessed visually in comparison to untreated controls (herbicidal action in percent (%): 100% activity=the plants have died, 0% activity=like control plants). […] At the same time, inventive compounds leave Gramineae crops such as barley, wheat, rye, millet/sorghum, corn or rice virtually undamaged when applied post-emergence, even at high active compound dosages. In addition, some substances are also harmless to dicotyledonous crops such as soya, cotton, oilseed rape, sugar beet or potatoes. […]

[8] = system: Alopecurus myosuroides; experiment: Post-emergence herbicidal action, ALOMY; format: in vivo; conditions: for herbicidal activity ALOMY: 80 g/ha, Table C
How it was run: as §1

[9] = system: Avena fatua; experiment: Pre-emergence herbicidal action, AVEFA; format: in vivo
How it was run: as §2

[10] = system: Cyperus serotinus; experiment: Pre-emergence herbicidal action, CYPES; format: in vivo
How it was run: as §2

[11] = system: Alopecurus myosuroides; experiment: Pre-emergence herbicidal action, ALOMY; format: in vivo
How it was run: as §2

[12] = system: Stellaria media; experiment: Pre-emergence herbicidal action, STEME; format: in vivo; conditions: dosage 320 g/ha, scored visually after 3 weeks vs untreated controls
How it was run: as §2

[13] = system: Amaranthus retroflexus; experiment: Pre-emergence herbicidal action, AMARE; format: in vivo; conditions: dosage 320 g/ha, scored visually after 3 weeks vs untreated controls
How it was run: as §2

[14] = system: Viola tricolor; experiment: Post-emergence herbicidal action, VIOTR; format: in vivo; conditions: for herbicidal activity VIOTR: 80 g/ha, Table D
How it was run: as §1

[15] = system: Amaranthus retroflexus; experiment: Post-emergence herbicidal action, AMARE; format: in vivo; conditions: 80 g/ha, Table D
How it was run: as §1

[16] = system: Polygonum convolvulus; experiment: Pre-emergence herbicidal action, POLCO; format: in vivo
How it was run: as §2

[17] = system: Setaria viridis; experiment: Post-emergence herbicidal action, SETVI; format: in vivo; conditions: for herbicidal activity SETVI: 80 g/ha, Table C
How it was run: as §1

[18] = system: Matricaria inodora; experiment: Pre-emergence herbicidal action, MATIN; format: in vivo; conditions: for Herbicidal efficacy against MATIN: Table K; for herbicidal activity MATIN: scored visually after 3 weeks vs untreated controls
How it was run: as §2

[19] = system: Abutilon theophrasti; experiment: Post-emergence herbicidal action, ABUTH; format: in vivo; conditions: 80 g/ha, Table D
How it was run: as §1

[20] = system: ECHCG; experiment: Post-emergence herbicidal action, ECHCG; format: in vivo; conditions: 80 g/ha, Table C
How it was run: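 Weed and crop plants grown in sandy loam in the greenhouse, treated at the one-leaf stage 2–3 weeks after sowing. Damage scored visually after about 3 weeks vs untreated controls (0% = control, 100% = dead).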

[21] = system: ECHCG; experiment: Pre-emergence herbicidal action, ECHCG; format: in vivo, Echinochloa crus-galli
[22] = system: LOLMU; experiment: Pre-emergence herbicidal action, LOLMU; format: in vivo; conditions: Table L
[23] = system: Matricaria inodora; experiment: Post-emergence herbicidal action, MATIN; format: in vivo; conditions: dosage 20 g/ha, Table M
Description: (§3) Seeds of monocotyledonous and dicotyledonous weed and crop plants are laid out in sandy loam soil in wood-fiber pots, covered with soil and cultivated in a greenhouse under good growth conditions. 2 to 3 weeks after sowing, the test plants are treated at the one-leaf stage. The compounds of the invention, formulated in the form of wettable powders (WP) or as emulsion concentrates (EC), are then sprayed onto the green parts of the plants in the form of an aqueous suspension or emulsion at a water application rate equating to […], with addition of 0.2% wetting agent. After the test plants have been left to stand in the greenhouse under optimal growth conditions for about 3 weeks, the action of the preparations is assessed visually in comparison to untreated controls (herbicidal action in percent (%): 100% activity=the plants have died, 0% activity=like control plants). […] At the same time, inventive compounds leave Gramineae crops such as barley, wheat, rye, millet/sorghum, corn or rice virtually undamaged when applied post-emergence, even at high active compound dosages. In addition, some substances are also harmless to dicotyledonous crops such as soya, cotton, oilseed rape, sugar beet or potatoes. Some of the compounds according to the invention have high selectivity and are therefore suitable for controlling unwanted vegetation in agricultural crops by the post-emergence method. The data of Tables C and D below illustrate, in an exemplary manner, the […] herbicidal action of the compounds according to the invention, the herbicidal activity being stated in percent.
(§4) For comparison, the herbicidal activity of numerous compounds according to the invention was tested with the structurally closest compounds known from the documents WO 2011/035874, WO 2012/028579 and WO 2012/126932, by the pre- and post-emergence method.

[24] = system: Veronica persica; experiment: Post-emergence herbicidal action, VERPE; format: in vivo; conditions: dosage 20 g/ha, Table M
Description: as §3, §4

[25] = dosage 320 g/ha, scored visually after 3 weeks vs untreated controls

With `Cc1c(C(=O)Nc2nnnn2C)ccc(C(F)F)c1[S+](C)[O-]` (stereo not shown) [Example 1-2] the “Herbicidal activity PHBPU” value [1] was 90%, the “Herbicidal efficacy against VIOTR” value ([2]; dosage 20 g/ha, Table K) was 80 and the “Herbicidal efficacy against VIOTR” value ([2]; dosage 80 g/ha, Table K) was 100. The “Herbicidal efficacy against VIOTR” value ([2]; dosage 320 g/ha, Table K) was 100, the “herbicidal activity VIOTR” value ([2]; dosage 320 g/ha) was 100% and the “Herbicidal efficacy against AVEFA” value ([3]; 5 g/ha) was 70. For the same compound, the “Herbicidal efficacy against AVEFA” value ([3]; 20 g/ha) was 90, the “herbicidal activity AVEFA” value ([3]; 80 g/ha, Table C) was 100% and the “Herbicidal efficacy against STEME” value ([4]; 5 g/ha) was 90. For the same compound, the “Herbicidal efficacy against STEME” value ([4]; 20 g/ha) was 90, the “Herbicidal activity STEME” value [4] was 100% and the “Herbicidal efficacy against ABUTH” value ([5]; dosage 80 g/ha) was 100. For the same compound, the “Herbicidal efficacy against ABUTH” value ([5]; dosage 320 g/ha) was 100, the “herbicidal activity ABUTH” value [5, 25] was 100% and the “Herbicidal efficacy against SETVI” value ([6]; 80 g/ha) was 90. For the same compound, the “Herbicidal efficacy against SETVI” value ([6]; 320 g/ha) was 100, the “herbicidal activity SETVI” value [6, 25] was 100% and the “Herbicidal efficacy against CYPES” value [7] was 50. For the same compound, the “Herbicidal efficacy against ALOMY” value ([8]; 5 g/ha) was 60, the “Herbicidal efficacy against ALOMY” value ([8]; 20 g/ha) was 80 and the “herbicidal activity ALOMY” value [8] was 90%. The “Herbicidal efficacy against AVEFA” value ([9]; 20 g/ha) was 20, the “Herbicidal efficacy against AVEFA” value ([9]; 80 g/ha) was 70 and the “Herbicidal efficacy against AVEFA” value ([9]; 320 g/ha) was 100. The “herbicidal activity AVEFA” value [9, 25] was 100%, the “Herbicidal efficacy against CYPES” value ([10]; 20 g/ha) was 60 and the “Herbicidal efficacy against CYPES” value ([10]; 80 g/ha) was 80. For the same compound, the “Herbicidal efficacy against CYPES” value ([10]; 320 g/ha) was 90, the “herbicidal activity CYPES” value [10, 25] was 90% and the “Herbicidal efficacy against ALOMY” value ([11]; 20 g/ha) was 70. The “Herbicidal efficacy against ALOMY” value ([11]; 80 g/ha) was 90, the “Herbicidal efficacy against ALOMY” value ([11]; 320 g/ha) was 100 and the “herbicidal activity ALOMY” value [11, 25] was 100%. The “Herbicidal activity STEME” value [12] was 90%, the “herbicidal activity AMARE” value [13] was 100% and the “Herbicidal efficacy against VIOTR” value ([14]; 5 g/ha) was 100. For the same compound, the “Herbicidal efficacy against VIOTR” value ([14]; 20 g/ha) was 100, the “herbicidal activity VIOTR” value [14] was 100% and the “herbicidal activity AMARE” value [15] was 80%. For the same compound, the “Herbicidal efficacy against POLCO” value ([16]; dosage 80 g/ha, Table K) was 70, the “Herbicidal efficacy against POLCO” value ([16]; dosage 320 g/ha, Table K) was 80 and the “Herbicidal efficacy against SETVI” value ([17]; 5 g/ha) was 90. The “Herbicidal efficacy against SETVI” value ([17]; 20 g/ha) was 90, the “herbicidal activity SETVI” value [17] was 90% and the “Herbicidal efficacy against MATIN” value ([18]; dosage 20 g/ha) was 70. For the same compound, the “Herbicidal efficacy against MATIN” value ([18]; dosage 80 g/ha) was 100, the “Herbicidal efficacy against MATIN” value ([18]; dosage 320 g/ha) was 100 and the “herbicidal activity MATIN” value ([18]; dosage 320 g/ha) was 100%. The “herbicidal activity ABUTH” value [19] was 80%, the “Herbicidal activity ECHCG” value [20] was 90% and the “Herbicidal efficacy against ECHCG” value ([21]; 20 g/ha) was 40. For the same compound, the “Herbicidal efficacy against ECHCG” value ([21]; 80 g/ha) was 100 and the “Herbicidal efficacy against ECHCG” value ([21]; 320 g/ha) was 100.
`CSc1c(C(F)F)ccc(C(=O)Nc2nnc(C)o2)c1C` [Example 7-1] was tested, and the “Herbicidal activity PHBPU” value [1] was 90%, the “Herbicidal efficacy against VIOTR” value ([2]; dosage 80 g/ha, Table L) was 90 and the “Herbicidal efficacy against VIOTR” value ([2]; dosage 320 g/ha, Table L) was 100. For the same compound, the “herbicidal activity VIOTR” value ([2]; dosage 320 g/ha) was 100%, the “Herbicidal efficacy against AVEFA” value ([3]; dosage 20 g/ha, Table M) was 40 and the “Herbicidal activity STEME” value [4] was 90%. For the same compound, the “Herbicidal efficacy against LOLMU” value ([22]; dosage 80 g/ha) was 0, the “Herbicidal efficacy against LOLMU” value ([22]; dosage 320 g/ha) was 30 and the “Herbicidal efficacy against SETVI” value ([6]; dosage 80 g/ha, Table L) was 70. The “Herbicidal efficacy against SETVI” value ([6]; dosage 320 g/ha, Table L) was 100, the “Herbicidal efficacy against MATIN” value [23] was 40 and the “herbicidal activity ALOMY” value [8] was 90%. For the same compound, the “Herbicidal efficacy against ALOMY” value ([8]; dosage 20 g/ha, Table M) was 70, the “Herbicidal efficacy against AVEFA” value ([9]; dosage 80 g/ha, Table L) was 20 and the “Herbicidal efficacy against AVEFA” value ([9]; dosage 320 g/ha, Table L) was 70. The “Herbicidal efficacy against CYPES” value ([10]; dosage 80 g/ha, Table L) was 60, the “Herbicidal efficacy against CYPES” value ([10]; dosage 320 g/ha, Table L) was 70 and the “Herbicidal efficacy against ALOMY” value ([11]; dosage 80 g/ha, Table L) was 60. For the same compound, the “Herbicidal efficacy against ALOMY” value ([11]; dosage 320 g/ha, Table L) was 70, the “Herbicidal activity STEME” value [12] was 80% and the “herbicidal activity AMARE” value [13] was 100%. The “herbicidal activity VIOTR” value [14] was 100%, the “Herbicidal efficacy against VIOTR” value ([14]; dosage 20 g/ha, Table M) was 100 and the “herbicidal activity AMARE” value [15] was 100%. The “Herbicidal efficacy against POLCO” value ([16]; dosage 80 g/ha, Table L) was 30, the “Herbicidal efficacy against POLCO” value ([16]; dosage 320 g/ha, Table L) was 40 and the “Herbicidal efficacy against VERPE” value [24] was 90. For the same compound, the “herbicidal activity SETVI” value [17] was 100%, the “Herbicidal efficacy against SETVI” value ([17]; dosage 20 g/ha, Table M) was 100 and the “herbicidal activity MATIN” value ([18]; dosage 320 g/ha) was 80%. The “herbicidal activity ABUTH” value [19] was 100% and the “Herbicidal activity ECHCG” value [20] was 100%.
